Measured values taken from article PMC10914731, “Homo-BacPROTAC-induced degradation of ClpC1 as a strategy against drug-resistant mycobacteria” (Nature Communications, 2024).
≈ marks a conversion by molar mass, not a printed value. Where “and” joins values, the source holds several entries; their conditions need not be identical. Equal values may be shown once. Read-outs that look alike come from different tables or passages of the source. *1 amine or outer side, *2 acyl side, *3 side chain or, on linkers, in order; H or OH if unused. Where a SMILES comes first, the peptide text is derived from it. [ ]: non-standard residue; d: D form. X1 = C#CCn1cc(C[C@H](N[*:1])C(=O)[*:2])c2ccccc21; NMeLeu(5-OH,4R) = CN[C@@H](C[C@@H](C)CO)C(=O)O; Phe(βR-OMe) = CO[C@H](c1ccccc1)[C@H](N)C(=O)O; NMeL = CN[C@@H](CC(C)C)C(=O)O

Columns and labels:
[1] = format: in vitro ADME, Rat
How it was run: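 Read-out: parent loss by HPLC-MS/MS, first-order fit, half-life scaled to %Qh (well-stirred liver model). Conditions: 1 µmol/l cpd, 0.5 mg/ml microsomes, 100 mM Tris-HCl pH 7.5, 6.5 mM MgCl2, 1 mM NADPH, 37 °C; acetonitrile stop at multiple times.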

Pseudomonas aeruginosa = experiment: MIC ESKAPES panel, Pseudomonas aeruginosa; format: cell-based
Method: Minimum inhibitory concentration (MIC) against ESKAPES panel of Gram positive and Gram negative pathogens (Enterococcus faecium, Staphylococcus aureus, Klebsiella pneumoniae, Acinetobacter baumannii, Pseudomonas aeruginosa, Enterobacter cloacae and Salmonella typhimurium [ESKAPES panel]) were determined at the FNDR by the standard broth dilution method [CLSI, M100]. […] Mueller Hinton broth (MHB) medium was used to grow ESKAPES panel strains. The individual cultures were added as 200 μL (inoculum of 3–7 × 10^5 cfu/ml) to the respective assay plates in each well to all columns, except the media control (200 μL of medium). […] The assay plates were incubated at 37 °C, and the results were noted on the 2nd day as turbidometric readout. The clear wells indicated inhibition of growth, while the turbid wells indicated uninhibited growth.

[2] = tested on: Mycobacterium intracellulare; experiment: microbe, parasite or virus in culture; format: cell-based
in vivo = format: in vivo, BALB/cAnNCrl mice
Method: The in-life experimental procedures were conducted in strict compliance with German and European animal welfare legislation in an AAALAC-accredited facility. Male BALB/cAnNCrl mice (Charles River Laboratories Research Models and Services, 97633 Sulzfeld, Germany) were used. Animals were 9 weeks old at dosing with a body weight of 21.6–24.3 g. Animals were delivered free of pathogens according to FELASA recommendations with a health certificate provided by the breeder. Upon receipt, the state of health and sex was checked. Animals acclimatized for at least 5 days before the commencement of the in-life phase. During acclimation, animals were group-housed in individually ventilated cages, on birch wood granulate bedding with species-specific enrichment (nesting material, mouse igloo, gnawing wood). During experimental conduct, animals were housed in conventional cages with elevated grid floors. Grid floor was used to avoid contamination with test item material excreted via urine and feces and subsequent reuptake during fur grooming. No bedding and enrichment were provided except a cage divider, which can be used as a shelter. Animals always had unlimited access to food and water and received a pelleted, total pathogen-free maintenance diet and tap drinking water, sterilized by filter.
In case of incomplete dissolution, the formulation was filtered at 40 °C (non-pyrogenic sterile-R filter, 0.2 µm). All formulations were stirred warm until administration. Actual test item content was determined bioanalytically.
Male BALB/cAnNCrl mice (n = 3 per test item and administration route) received a bolus dose of the formulated test item(s) (1 mg/kg iv, 30 mg/kg po) at t = 0 h, and whole blood samples were collected subsequently (35 µl at 0.1 (iv) / 0.25 (po), 0.5, 1, 2, 4, 6 h; 600 µl at sacrifice after 24 h). Animals were euthanized by exsanguination in deep isoflurane anesthesia. Whole blood samples were immediately stored on ice at about 4 °C. Plasma was separated by centrifugation at approximately 10,000 × g for 5 m at +4 °C. Centrifugation of each blood sample was started within 10 m after collection. A single aliquot of at least 15 µL of plasma was prepared and immediately stored at −20 ± 5 °C.
Sample proteins were precipitated with ACN (1 + 12, v/v) containing internal standard, and supernatants analyzed by quantitative UPLC-MS/MS: Phenomenex Luna Omega C18, 2.1 × 50 mm, 1.6 µm, 40 °C, gradient between 10% - 90% ACN with 0.1% formic acid. LogD determination: Lipophilicity of the test items, expressed as chromLogD7.5, was assessed by measuring their chromatographic retention times on C18-material. The chromatographic retention versus logD7.5 values of a series of thirteen n-alkan-2-ones (2-butanone – 2-hexadecanone) served as lipophilicity calibration.

[3] = iv bolus, individual animals 1-3
[4] = male, BALB/cAnNCrl, mouse, in vivo, iv, 1.062 umol/kg, iv bolus, individual animals 1-3
[5] = male, BALB/cAnNCrl, mouse, in vivo, iv, 1.062 umol/kg, iv bolus, mice, Mean

**Q.** With `C#CCn1cc(C[C@@H]2NC(=O)[C@H](C(C)C)NC(=O)[C@H](CC(C)C)N(C)C(=O)[C@H](C(C)C)NC(=O)[C@H]([C@H](OC)c3ccccc3)NC(=O)[C@H](C)NC(=O)[C@H](C[C@@H](C)CO)N(C)C2=O)c2ccccc21` [Compound 5] (cyclo(A[Phe(βR-OMe)]V[NMeL]V[X1][NMeLeu(5-OH,4R)])) as the compound, how does the “Microsomal Stability Rat QH” value ([1]; Rat) read?
**A.** The value was over 87.900%.

**Q.** And the “Microsomal Stability Rat” value ([1]; clearance in microsomes)?
**A.** The value was over 88 %Qh.

**Q.** And the MIC (Pseudomonas aeruginosa; Gram-Negative Bacteria, replicates 1-3)?
**A.** The MIC was over 50 µM.

**Q.** What about the MIC (Pseudomonas aeruginosa; Pseudomonas aeruginosa, Gram negative, n = 3 well replicates) of the same compound?
**A.** Its MIC is over 50 µM.

**Q.** And the MIC (Pseudomonas aeruginosa; Pseudomonas aeruginosa, Gram-Negative Bacteria, replicates 1-3)?
**A.** Its MIC is over 47 µg/mL.

**Q.** What about the MIC ([2]; Experiment 1, read-out: MIC Mycobacterium intracellulare) of the same compound?
**A.** The MIC was 6.3 µM.

**Q.** What about the “MIC (µg/ml) Mycobacterium intracellulare” value ([2]; Experiment 2, three replicate columns) of the same compound?
**A.** The value was 5.88 µg/mL (≈ 6.25 µM).

**Q.** What about the MIC ([2]; Experiment 2, three replicate columns, read-out: MIC (µM) Mycobacterium intracellulare) of the same compound?
**A.** Its MIC is 6.25 µM.

**Q.** And the MIC ([2]; Mycobacterium intracellulare, Experiment 1, read-out: MIC Mycobacterium intracellulare)?
**A.** The MIC was 5.9 µg/mL.

**Q.** And the MIC ([2]; Mycobacterium intracellulare, Experiment 2, three replicate columns, read-out: MIC (µM) Mycobacterium intracellulare)?
**A.** The MIC was 6.25 µM.

**Q.** What about the MIC ([2]; Mycobacterium intracellulare, Experiment 2, three replicate columns, read-out: MIC (µg/ml) Mycobacterium intracellulare) of the same compound?
**A.** The MIC was 5.88 µg/mL.

**Q.** What about the MIC ([2]; Mycobacterium intracellulare, mean ± SD, read-out: MIC Mycobacterium intracellulare) of the same compound?
**A.** The MIC was 6.3 µM.

**Q.** What about the AUC0-inf/Dose (in vivo; [3]) of the same compound?
**A.** The AUC0-inf/Dose was 180 h nM/(nmol kg-1) and 169 h nM/(nmol kg-1) and 158 h nM/(nmol kg-1).

**Q.** And the AUC0-t/Dose (in vivo; [3])?
**A.** The AUC0-t/Dose was 177 h nM/(nmol kg-1) and 161 h nM/(nmol kg-1) and 154 h nM/(nmol kg-1).

**Q.** And the CL (in vivo; [3])?
**A.** The CL was 98.5 mL/min/kg and 106 mL/min/kg.

**Q.** What about the “CL PL QH” value (in vivo; [3]) of the same compound?
**A.** Its value is 103.0% and 109.0% and 117.0%.

**Q.** What about the Cmax/Dose (in vivo; [3]) of the same compound?
**A.** Its Cmax/Dose is 488 nM/(nmol kg-1) and 361 nM/(nmol kg-1) and 396 nM/(nmol kg-1).

**Q.** What about the MRT (in vivo; [3]) of the same compound?
**A.** Its MRT is 54 min and 42 min.

**Q.** And the “Plasma concentration 0.1 h” value (in vivo; [3])?
**A.** The value was 518 nM and 384 nM and 421 nM.

**Q.** And the “Plasma concentration 0.5 h” value (in vivo; [3])?
**A.** Its value is 85.1 nM and 88.1 nM and 71.5 nM.

**Q.** And the “Plasma concentration 1 h” value (in vivo; [3])?
**A.** The value was 33.6 nM and 37.9 nM and 32.6 nM.

**Q.** And the “Plasma concentration 2 h” value (in vivo; [3])?
**A.** Its value is 12.3 nM and 14.2 nM and 13.4 nM.

**Q.** And the “Plasma concentration 4 h” value (in vivo; [3])?
**A.** The value was 2.7 nM and 4.8 nM and 2.9 nM.

**Q.** And the Vss (in vivo; [3])?
**A.** Its Vss is 5.6 L/kg and 4.6 L/kg.

**Q.** And the t1/2 (in vivo; [3])?
**A.** The t1/2 was 78 min.

**Q.** What about the AUC0-inf/Dose (in vivo; iv bolus, mice, Mean) of the same compound?
**A.** The AUC0-inf/Dose was 169 h nM/(nmol kg-1).

**Q.** And the AUC0-t/Dose (in vivo; iv bolus, mice, Mean)?
**A.** Its AUC0-t/Dose is 164 h nM/(nmol kg-1).

**Q.** What about the “CL PL QH” value (in vivo; iv bolus, mice, Mean) of the same compound?
**A.** The value was 110.0%.

**Q.** And the Cmax/Dose (in vivo; iv bolus, mice, Mean)?
**A.** The Cmax/Dose was 415 nM/(nmol kg-1).

**Q.** And the “Plasma concentration 0.1 h” value (in vivo; iv bolus, mice, Mean)?
**A.** Its value is 441 nM.

**Q.** And the “Plasma concentration 0.5 h” value (in vivo; iv bolus, mice, Mean)?
**A.** The value was 81.6 nM.

**Q.** And the “Plasma concentration 1 h” value (in vivo; iv bolus, mice, Mean)?
**A.** Its value is 34.7 nM.

**Q.** And the “Plasma concentration 2 h” value (in vivo; iv bolus, mice, Mean)?
**A.** The value was 13.3 nM.

**Q.** And the “Plasma concentration 4 h” value (in vivo; iv bolus, mice, Mean)?
**A.** The value was 3.5 nM.

**Q.** And the clearance (in vivo; [4])?
**A.** Its clearance is 92.3 mL/min/kg.

**Q.** And the half-life (in vivo; [4])?
**A.** Its half-life is 54 min.

**Q.** And the MRT (in vivo; male, BALB/cAnNCrl, mouse, in vivo, iv, 1.062 umol/kg, iv bolus, individual animals 1-3, read-out: MRT)?
**A.** Its MRT is 36 min.

**Q.** What about the Vd (in vivo; male, BALB/cAnNCrl, mouse, in vivo, iv, 1.062 umol/kg, iv bolus, individual animals 1-3, read-out: Vss) of the same compound?
**A.** The Vd was 3.5 L/kg.

**Q.** And the clearance (in vivo; [5])?
**A.** Its clearance is 98.8 mL/min/kg.

**Q.** And the half-life (in vivo; [5])?
**A.** The half-life was 60 min.

**Q.** And the MRT (in vivo; male, BALB/cAnNCrl, mouse, in vivo, iv, 1.062 umol/kg, iv bolus, mice, Mean, read-out: MRT)?
**A.** The MRT was 48 min.

**Q.** What about the Vd (in vivo; male, BALB/cAnNCrl, mouse, in vivo, iv, 1.062 umol/kg, iv bolus, mice, Mean, read-out: Vss) of the same compound?
**A.** Its Vd is 4.5 L/kg.

**Q.** And the Vd (in vivo; male, BALB/cAnNCrl, mouse, in vivo, iv, 1 mg/kg, mice, 1 mg kg-1 iv bolus, read-out: VSS)?
**A.** Its Vd is 4.54 L/kg.

**Q.** And the clearance (in vivo; male, BALB/cAnNCrl, mouse, in vivo, iv, 1 mg/kg, plasma clearance, mice, 1 mg kg-1 iv bolus)?
**A.** The clearance was 98.8 mL/min/kg.

**Q.** And the half-life (in vivo; male, BALB/cAnNCrl, mouse, in vivo, iv, 1 mg/kg, plasma, mice, 1 mg kg-1 iv bolus)?
**A.** Its half-life is 61.8 min.

**Q.** What about the AUC (in vivo; mouse, in vivo, iv) of the same compound?
**A.** Its AUC is 164 h nM/(nmol kg-1).

**Q.** And the Cmax (in vivo; mouse, in vivo, iv)?
**A.** The Cmax was 415 nM/(nmol kg-1).

**Q.** What about the “Plasma concentration 6 h” value (in vivo; mouse, in vivo, iv) of the same compound?
**A.** Its value is “BLOQ”.

**Q.** And the “Plasma concentration 24 h” value (in vivo; mouse, in vivo, iv)?
**A.** The value was “BLOQ”.
